Here are results for ten molecules from patent US20030157516A1, “G protein coupled receptor” (priority 2000, published 2003).

Values joined by “and” are separate entries in the source; they are usually repeats but may differ in a detail not shown here. Equal values may be shown once. Read-outs that look alike come from different tables or passages of the source. A value given as a limit tells only on which side of the number the result lay.

One assay deals with T1, adenine binding GPCR (Rattus norvegicus, UniProt Q7TN49).
T1 construct: The full length reading frame was inserted into the mammalian expression vector pcDNA3; expressed in transfected cells; host or cells: HEK293 cells stably transfected with pLEC/Gqi or pLEC/Gqo
T1 sequence (Q7TN49 1-304): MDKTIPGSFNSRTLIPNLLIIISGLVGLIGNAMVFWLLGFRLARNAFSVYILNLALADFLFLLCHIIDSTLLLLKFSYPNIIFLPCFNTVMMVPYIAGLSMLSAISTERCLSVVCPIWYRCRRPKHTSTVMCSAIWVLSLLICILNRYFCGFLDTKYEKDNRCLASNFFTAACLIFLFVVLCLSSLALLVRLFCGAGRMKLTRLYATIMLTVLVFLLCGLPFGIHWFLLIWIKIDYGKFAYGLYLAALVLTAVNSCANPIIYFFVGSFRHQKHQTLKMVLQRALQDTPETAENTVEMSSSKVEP
Put plainly: FLIPR Ca2+ transient assay, antagonism of 30 nM adenine challenge. It counts as cell-based. Particulars: 15 minutes incubation with compound (30 μM to 30 pM), then challenge with 30 nM adenine. The source says:
The full length reading frame was inserted into the mammalian expression vector pcDNA3 (Invitrogen, Carlsbad, Calif., U.S.A.) and the resulting expression construct was transiently transfected with the FuGENE 6 reagent (Roche Molecular Biochemicals, Mannheim, Germany) into HEK293 cells stably transfected (E. Bender, unpublished) with pLEC/Gqi or pLEC/Gqo (Molecular Devices, Sunnyvale, Calif., U.S.A.). The cells were loaded with Fluo-4 (Molecular Probes, Eugene, Oreg., U.S.A.) according to the recommendations of the supplier.
After a 15 minutes incubation at room temperature, the same cells were challenged with 30 nM adenine, to detect antagonistic properties of molecules added in the first round of superfusion.

The target in assay [1] is T2, adenine binding rat receptor (Rattus norvegicus, UniProt Q7TN49).
T2 construct: expressed in transfected cells; host or cells: CHO cells, transient, lipofectamine PLUS
T2 sequence (Q7TN49 1-304): T1 sequence (Q7TN49 1-304)
Put plainly: [3H]adenine competition binding on CHO membranes transiently transfected. Particulars: transfected cells, 15 nM [3H]adenine. The procedure:
(§1) The membranes were prepared as total particulate fractions. The cell lines were cultured to 906 confluency on 145 mm petri dishes and treated with 5 mM sodium butyrate, 24 hours before collection. The culturing medium was removed and the cells were washed twice with ice cold phosphate buffered saline (PBS without Ca^2+ and Mg^2+), scraped from the plates in 50 mM Tris-HCl buffer, pH 7.4, and collected by centrifugation (10 minutes at 16,000 RPM at 4° C.). The cell pellet was re-suspended in hypotonic 5 mM Tris-HCl buffer, pH 7.4, and homogenized with an Ultra Turrax homogenizer (Janker Kunkel, Germany). The homogenate was centrifuged at 18,000 RPM for 20 minutes at 4° C. The final pellet was re-suspended in 50 mM Tris-HCl buffer, pH 7.4 and stored in aliquots at −70° C. A protein determination was performed using the Bradford protein assay (Biorad, Germany) using bovine serum albumin (BSA) as standard.
(§2) A) Methods—[3H]Adenine binding experiments were performed to characterize wild type cell lines before transfection as well as transiently and permanently transfected cell lines. Membranes were thawed on ice and diluted in 50 mM HEPES buffer, pH 7.4 supplemented with 10 mM MgCl2 and 1 mM EGTA. […] Both assays were carried out in a final volume of 500 μl, using 18 μg of membrane protein for the transfected CHO cells and 30 μg of membrane protein for the wild type CHO cells for the saturation binding. For competition binding experiments, 15 and 50 μg of membrane protein was used for the transfected and wild type cells, respectively. The reaction was terminated by rapid filtration through Whatman GF/B filters using a Brandel multi-channel cell harvester (96 wells). The filters were washed three times with 3 ml ice cold 50 mM HEPES buffer, pH 7.4, transferred to liquid scintillation vials and 3 ml of scintillation fluid (Ultima Gold MV, Packard, Netherlands) was added. Samples were counted in a β-scintillation counter after at least 6 hours to permit the glass fiber filters to become uniformly translucent.

In a further assay the test system is wild type CHO cells. The assay is described as follows: [3H]adenine competition binding on wild type CHO membranes. Particulars: 15 nM [3H]adenine. Here is the method:
as §1, with “The cell lines were cultured to 906 confluency on 145 mm petri dishes and treated with 5 mM sodium butyrate, 24 hours before collection.” left out
as §2, with “Membranes” for “A) Methods—[3H]Adenine binding experiments were performed to characterize wild type cell lines before transfection as well as transiently and permanently transfected cell lines. Membranes”

In the next assay the target is T3, rat adenine binding GPCR (Rattus norvegicus, UniProt Q7TN49).
T3 sequence (Q7TN49 1-304): T1 sequence (Q7TN49 1-304)
Put plainly: FLIPR Ca2+ transient assay, agonism, HEK293/Gq chimera cells transiently transfected with rat adenine binding GPCR/pcDNA3. It counts as cell-based. On the set-up: The full length reading frame was inserted into the mammalian expression vector pcDNA3; expressed in transfected cells; host or cells: HEK293 cells stably transfected with pLEC/Gqi or pLEC/Gqo. Particulars: for calcium transients elicited: HEK293/Gaqo cells, 3.3 μM; for agonistic effects on Ca2+ transients: concentrations ranging from 30 μM to 30 pM. From the text:
This assay is based around an instrument called a FLuorescence Imaging Plate Reader ((FLIPR®), Molecular Devices Corporation). In its most common configuration, it excites and measures fluorescence emitted by fluorescein-based dyes. It uses an argon-ion laser to produce high power excitation at 488 nm of a fluorophore, a system of optics to rapidly scan the over the bottom of a 96-/384-well plate and a sensitive, cooled CCD camera to capture the emitted fluorescence. It also contains a 96-/384-well pipetting head allowing the instrument to deliver solutions of test agents into the wells of a 96-/384-well plate. The FLIPR assay is designed to measure fluorescence signals from populations of cells before, during and after addition of compounds, in real time, from all 96-/384-wells simultaneously. […] As described below, calcium transients in cells transfected with adenine binding GPCR were measured using the FLIPR assay in order to measure activation of the receptors by various substrates in order to determine the natural ligand of the receptor.
The full length reading frame was inserted into the mammalian expression vector pcDNA3 (Invitrogen, Carlsbad, Calif., U.S.A.) and the resulting expression construct was transiently transfected with the FuGENE 6 reagent (Roche Molecular Biochemicals, Mannheim, Germany) into HEK293 cells stably transfected (E. Bender, unpublished) with pLEC/Gqi or pLEC/Gqo (Molecular Devices, Sunnyvale, Calif., U.S.A.). The cells were loaded with Fluo-4 (Molecular Probes, Eugene, Oreg., U.S.A.) according to the recommendations of the supplier. […]
Using the FLIPR assay as above, calcium transients were measured in both sets of cells with the transients attributable to the novel GPCR measured as the difference between the two transients. Results are illustrated in FIG. 4. […]

In assay [2] the target is T2, adenine binding rat receptor. Put plainly: [35S]GTPγS binding on CHO membranes transiently transfected. The class given is biochemical. The conditions noted are these: transiently transfected cells; for % stim.: increase above basal; for EC50: read-out: pEC50 (converted). The procedure:
a) Methods—Determination of [^35S ]GTPγS binding to the G-proteins was carried out according to a modified procedure of Lazareno (Methods Mol. Biol., 83:107-116, 1997). These experiments were performed for a first functional evaluation of the receptor on the level of a membrane preparation.
The assay mixture contained 10 and 35 μg of membrane protein for the transfected and wild type CHO cells, respectively.
For testing agonistic activity, 175 μl of diluted membranes was pre-incubated in the buffer described above together with 25 μl of buffer and 25 μl of varying concentrations of the compound in a total volume of 225 μl. After a 20 minute pre-incubation period at 30° C., 25 μl of [^35S]GTPγS was added to a final concentration of 0.25 nM and the assay mixtures were further incubated for 20 minutes at 30° C. Bound and free [^35S]GTPγS were separated by rapid filtration over an UniFilter™-96, GF/B™ under reduced pressure using Filtermate 196 filtration (Packard Company (Netherlands). The amount of bound radioactivity on the filter unit was determined after drying of the filters and scintillant addition (Microscint-O; Packard Company) by liquid scintillation counting.
Basal [^35S]GTPγS binding was measured in absence of compounds. Stimulation by agonist was calculated as the percentage increase above basal levels. The sigmoid agonist concentration-response curves were analyzed by non-linear regression using the GraphPad Prism program. The different concentration points were run in duplicates and the reported data were retrieved from independent experiments.
For orientation: Binding of GTPγS marks nucleotide exchange on a G protein.

In general, IC50 refers to the point on the concentration scale where inhibition reaches its midpoint. High values mean weaker potency in that assay, low ones greater potency in that assay. Broadly, the pIC50 is the negative decadic logarithm of the IC50, by convention in mol/L. Turning to `O=c1ccn([C@@H]2O[C@H](CO)[C@@H](O)[C@H]2O)c(=O)[nH]1` [Uridine, uridine], the antagonistic effect entry on adenine binding GPCR is “did not elicit antagonistic effects”. Moreover, the IC50 in assay [1] (mean of n experiments) and in assay [1] (single experiments) was above 100 µM throughout. The pIC50 in the assay on wild type CHO cells (mean of n experiments) and with wild type CHO cells (single experiments) was below 4 throughout. Also, on rat adenine binding GPCR, the calcium transients elicited entry is given as “could not be elicited”. Also, the “agonistic effects on Ca2+ transients” value at rat adenine binding GPCR is “No further agonistic effects”.

As to `Cc1ccc(C(=O)Nc2ccc(S(=O)(=O)O)c3cc(S(=O)(=O)O)cc(S(=O)(=O)O)c23)cc1NC(=O)c1cccc(NC(=O)Nc2cccc(C(=O)Nc3cc(C(=O)Nc4ccc(S(=O)(=O)O)c5cc(S(=O)(=O)O)cc(S(=O)(=O)O)c45)ccc3C)c2)c1` [suramin], the antagonistic effect result on adenine binding GPCR is “did not elicit antagonistic effects”. Besides, at rat adenine binding GPCR, the “agonistic effects on Ca2+ transients” value was “No further agonistic effects”.

With `O=c1ccn([C@@H]2O[C@H](COP(=O)(O)OP(=O)(O)O)[C@@H](O)[C@H]2O)c(=O)[nH]1` [UDP], at adenine binding GPCR, the antagonistic effect entry is on record as “did not elicit antagonistic effects”. On rat adenine binding GPCR, the calcium transients elicited result is on record as “could not be elicited” and the “agonistic effects on Ca2+ transients” value is reported as “No further agonistic effects”.

In general, Ki refers to the dissociation constant of the complex between target and ligand, obtained from inhibition or displacement. With `c1ccc(CNc2ncnc3nc[nH]c23)cc1` [6-Benzylaminopurine], the IC50 is 93.3 µM in assay [1] (mean of n experiments) and 87.1 µM in assay [1] (single experiments). In addition, the Ki in assay [1] (mean of n experiments) is 58.3 µM; in assay [1] (single experiments) it was 61.4 µM and 54.1 µM. For the same molecule, the pIC50 in the assay on wild type CHO cells (mean of n experiments) and in the assay with wild type CHO cells (single experiments) was below 4 throughout. Moreover, in assay [2] (adenine stimulation of same experiment = 100%), the “stimulation normalized to maximum adenine response” value is “(11% ref)”. In addition, the “% stim.” value in assay [2] (mean of n experiments) and in assay [2] (single experiments) was 12% each time. Also, the EC50 in assay [2] (mean of n experiments) and in assay [2] (single experiments) was above 100 µM in each case.

Regarding `Cn1c(=O)c2[nH]cnc2n(C)c1=O` [theophylline], the antagonistic effect result at adenine binding GPCR was “did not elicit antagonistic effects”. Also, at rat adenine binding GPCR, the “agonistic effects on Ca2+ transients” value was “No further agonistic effects”.

Consider `O=c1ccn([C@@H]2O[C@H](COP(=O)(O)OP(=O)(O)OP(=O)(O)O)[C@@H](O)[C@H]2O)c(=O)[nH]1` [UTP], for which, on adenine binding GPCR, the antagonistic effect result is reported as “did not elicit antagonistic effects”. The “agonistic effects on Ca2+ transients” value on rat adenine binding GPCR is listed as “No further agonistic effects”.

On to `COc1cccc2c1C(=O)c1c(O)c3c(c(O)c1C2=O)C[C@@](O)(C(C)=O)C[C@@H]3O[C@H]1C[C@H](N)[C@H](O)[C@H](C)O1` [Daunomycin], for which the IC50 in assay [1] (mean of n experiments) and in assay [1] (single experiments) was 50.1 µM each time. The Ki turned out to be 31.3 µM in assay [1] (mean of n experiments) and 31 µM in assay [1] (single experiments). In addition, the pIC50 in the assay with wild type CHO cells (mean of n experiments) and in the assay on wild type CHO cells (single experiments) was below 4 in each case.

For `O=c1[nH]c(=O)c2[nH]cnc2[nH]1` [xanthine], at adenine binding GPCR, the antagonistic effect entry is reported as “did not elicit antagonistic effects”. At rat adenine binding GPCR, the calcium transients elicited entry is reported as “could not be elicited” and the “agonistic effects on Ca2+ transients” value is given as “No further agonistic effects”.

On to reactive blue, for which the antagonistic effect result at adenine binding GPCR was “did not elicit antagonistic effects”. Moreover, at rat adenine binding GPCR, the “agonistic effects on Ca2+ transients” value is recorded as “No further agonistic effects”.

On to `COc1cccc2c1C(=O)c1c(O)c3c(c(O)c1C2=O)C[C@@](O)(C(=O)CO)C[C@@H]3O[C@H]1C[C@H](N)[C@H](O)[C@H](C)O1` [Adrianamycin], for which the Ki in assay [1] (mean of n experiments) came out at 27.9 µM; in assay [1] (single experiments), 27.8 µM. In addition, the pIC50 in assay [1] (mean of n experiments) is on record as 4.35; in assay [1] (single experiments), 4.35; in the assay on wild type CHO cells (mean of n experiments) it was below 4; with wild type CHO cells (single experiments), below 4.
